Values of other authors in patent US10829440B2, “Antibacterial compounds and methods of making and using same” (Brown University, priority 2015, dated 2020).

Tested on: LT
Conditions: cited from earlier work

CC1=N[C@@H]2[C@@H](O)[C@H](O)[C@@H](CO)O[C@@H]2S1 [NAG-thiazoline]
binding of LT: weak binder
